US12428406B2 (PMV Pharmaceuticals, Inc., priority 2019, dated 2025)

Each compound was assayed against T1, p53 Y220C (Homo sapiens, UniProt P04637, Y220C) (assay: In vitro DNA binding activity assay (HTRF / TR-FRET): stabilization of p53 Y220C and increase of its DNA binding activity). Conditions: recombinant His-tagged p53 Y220C DNA binding domain (aa 94-312), biotin-labeled consensus DNA, incubated at 27° C. or 29° C. for 60 min.
T1 construct: The recombinant protein was a truncation mutant containing only amino acids 94-312 of p53; made in house; host or cells: E. coli
T1 sequence (P04637 94-312, change not shown): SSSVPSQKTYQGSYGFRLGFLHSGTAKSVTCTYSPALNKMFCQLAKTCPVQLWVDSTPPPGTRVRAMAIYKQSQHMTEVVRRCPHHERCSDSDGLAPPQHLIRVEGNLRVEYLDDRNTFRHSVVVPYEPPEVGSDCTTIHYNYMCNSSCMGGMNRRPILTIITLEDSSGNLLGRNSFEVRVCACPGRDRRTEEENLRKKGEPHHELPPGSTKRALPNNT
Format: biochemical
Procedure, shortened: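 Stabilization of the mutant is inferred from increased binding of His-tagged p53 Y220C to a biotin-labeled consensus DNA, detected by HTRF with europium-streptavidin and APC-anti-His antibody. The concentration giving a 50% rise over compound-free binding is reported as SC150.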

SMILES	SC150 (concentration of the compound required to increase the DNA binding activity by 50%)
CNC(=O)c1ccc(NCC#Cc2cc3c(N[C@@H]4CCN(C(C)(C)C)C[C@@H]4F)cccc3n2CC(F)(F)F)c(OC)c1 [Compound 1072A, 4-{[3-(4-{[(3S,4R)-1-tert-butyl-3-fluoropiperidin-4-yl]amino}-1-(2,2,2-trifluoroethyl)-1H-indol-2-yl)prop-2-yn-1-yl]amino}-3-methoxy-N-methylbenzamide]	+ (+ = 0 μM ≤ SC150 < 0.05 μM)
COCC(O)CN1CCC(Nc2cccc3c2cc(C#CCNc2ccc(S(C)(=O)=O)cc2OC)n3CCC(F)(F)F)CC1 (centres unmarked) [Compound 711A, 1-{4-[(2-{3-[(4-methanesulfonyl-2-methoxyphenyl)amino]prop-1-yn-1-yl}-1-(3,3,3-trifluoropropyl)-1H-indol-4-yl)amino]piperidin-1-yl}-3-methoxypropan-2-ol]	++ (++ = 0.05 μM ≤ SC150 < 0.1 μM)
CCS(=O)(=O)c1ccc(NCC#Cc2cc3c(N[C@H]4CC[C@@H](N(C)C)CC4)cccc3n2CC(F)(F)F)c(OC)c1 [Compound 120A, (1S,4S)—N^4-[2-(3-{[4-(ethanesulfonyl)-2-methoxyphenyl]amino}prop-1-yn-1-yl)-1-(2,2,2-trifluoroethyl)-1H-indol-4-yl]-N^1,N^1-dimethylcyclohexane-1,4-diamine]	+ (+ = 0 μM ≤ SC150 < 0.05 μM)
COc1cc(C(=O)NCC(COC(=O)C(C)C)OC)ccc1NCC#Cc1cc2c(N[C@@H]3CCN(C)C[C@@H]3F)cccc2n1CC(F)(F)F (stereo partly drawn) [Compound 1061A, 3-[(4-{[3-(4-{[(3S,4R)-3-fluoro-1-methylpiperidin-4-yl]amino}-1-(2,2,2-trifluoroethyl)-1H-indol-2-yl)prop-2-yn-1-yl]amino}-3-methoxyphenyl)formamido]-2-methoxypropyl 2-methylpropanoate]	+ (+ = 0 μM ≤ SC150 < 0.05 μM)
COCC(O)CN1CCCC(Nc2cccc3c2cc(C#CCNc2ccc(S(C)(=O)=O)cc2OC)n3CC(F)(F)F)C1 (centres unmarked) [Compound 695A, 1-{3-[(2-{3-[(4-methanesulfonyl-2-methoxyphenyl)amino]prop-1-yn-1-yl}-1-(2,2,2-trifluoroethyl)-1H-indol-4-yl)amino]piperidin-1-yl}-3-methoxypropan-2-ol]	+ (+ = 0 μM ≤ SC150 < 0.05 μM)
COc1cc(C(C)(C)C#N)ncc1NCC#Cc1cc2c(NC3CCN(CC(O)CO)CC3)cccc2n1CC(F)(F)F (centres unmarked) [Compound 554A, 2-(5-{[3-(4-{[1-(2,3-dihydroxypropyl)piperidin-4-yl]amino}-1-(2,2,2-trifluoroethyl)-1H-indol-2-yl)prop-2-yn-1-yl]amino}-4-methoxypyridin-2-yl)-2-methylpropanenitrile]	+ (+ = 0 μM ≤ SC150 < 0.05 μM)
COc1cc(S(C)(=O)=O)ccc1NCC#Cc1cc2c(NC3CCN(CC(O)COC(=O)C(C)C)CC3)cccc2n1CC(F)(F)F (centres unmarked) [Compound 592A, 2-hydroxy-3-{4-[(2-{3-[(4-methanesulfonyl-2-methoxyphenyl)amino]prop-1-yn-1-yl}-1-(2,2,2-trifluoroethyl)-1H-indol-4-yl)amino]piperidin-1-yl}propyl 2-methylpropanoate]	+ (+ = 0 μM ≤ SC150 < 0.05 μM)
COc1cc(S(N)(=O)=O)ccc1NCC#Cc1cc2c(NC3CCN(CCOC(=O)C(C)C)CC3)cccc2n1CC(F)(F)F [Compound 600A, 2-{4-[(2-{3-[(2-methoxy-4-sulfamoylphenyl)amino]prop-1-yn-1-yl}-1-(2,2,2-trifluoroethyl)-1H-indol-4-yl)amino]piperidin-1-yl}EtOAc]	+ (+ = 0 μM ≤ SC150 < 0.05 μM)
COc1cc(S(C)(=O)=O)ccc1NCC#Cc1cc2c(NC3CCN(CC(C)OC(C)=O)CC3)cccc2n1CC(F)(F)F (centres unmarked) [Compound 567A, 1-{4-[(2-{3-[(4-methanesulfonyl-2-methoxyphenyl)amino]prop-1-yn-1-yl}-1-(2,2,2-trifluoroethyl)-1H-indol-4-yl)amino]piperidin-1-yl}propan-2-yl acetate]	+ (+ = 0 μM ≤ SC150 < 0.05 μM)
COc1cc(C#N)ccc1NCC#Cc1cc2c(NC3CCC(N4CC5(COC5)C4)CC3)cccc2n1CC(F)(F)F (centres unmarked) [Compound 249A, 3-methoxy-4-[(3-{4-[(4-{2-oxa-6-azaspiro[3.3]heptan-6-yl}cyclohexyl)amino]-1-(2,2,2-trifluoroethyl)-1H-indol-2-yl}prop-2-yn-1-yl)amino]benzonitrile]	+ (+ = 0 μM ≤ SC150 < 0.05 μM)
COc1cc(S(C)(=O)=O)ccc1NCC#Cc1cc2c(N[C@H]3CC[C@H](N4CCOCC4)CC3)cccc2n1CCF [Compound 176A, 1-(2-fluoroethyl)-2-{3-[(4-methane-sulfonyl-2-methoxy-phenyl)amino]prop-1-yn-1-yl}-N-[(1R,4R)-4-(morpholin-4-yl)cyclo-hexyl]-1H-indol-4-amine]	+ (+ = 0 μM ≤ SC150 < 0.05 μM)
CNC(=O)c1cc(OC)c(NCC#Cc2cc3c(N[C@H]4CC[C@H](N(C)C)CC4)cccc3n2CC(F)(F)F)cc1F [Compound 136A, 2-fluoro-5-methoxy-N-methyl-4-{[3-(4-{[(1R,4R)-4-(dimethylamino)cyclohexyl]amino}-1-(2,2,2-trifluoroethyl)-1H-indol-2-yl)prop-2-yn-1-yl]amino}benzamide]	+ (+ = 0 μM ≤ SC150 < 0.05 μM)
COc1cc(S(C)(=O)=O)ccc1NCC#Cc1cc2c(N[C@H]3CC[C@H](N4CCCC(OC)C4)CC3)cccc2n1CC(F)(F)F (stereo partly drawn) [Compound 348A, 2-{3-[(4-methane-sulfonyl-2-methoxy-phenyl)amino]prop-1-yn-1-yl}-N-[(1R,4R)-4-(3-methoxypiperidin-1-yl)cyclohexyl]-1-(2,2,2-trifluoroethyl)-1H-indol-4-amine]	+ (+ = 0 μM ≤ SC150 < 0.05 μM)
COc1cc(S(C)(=O)=O)ccc1NCC#Cc1cc2c(N[C@H]3CCOC[C@H]3F)cccc2n1CC(F)(F)F (racemic) [Compound 1022A, rac-N-[(3R,4R)-3-fluorooxan-4-yl]-2-{3-[(4-methanesulfonyl-2-methoxyphenyl)amino]prop-1-yn-1-yl}-1-(2,2,2-trifluoroethyl)-1H-indol-4-amine]	+ (+ = 0 μM ≤ SC150 < 0.05 μM)
COc1cc(S(C)(=O)=O)ccc1NCC#Cc1cc2c(N[C@@H]3CCN(C(=O)CN)C[C@@H]3F)cccc2n1CC(F)(F)F [Compound 893A]	+ (+ = 0 μM ≤ SC150 < 0.05 μM)
CNS(=O)(=O)c1ccc(NCC#Cc2cc3c(NC4CCN(CC(O)COC)CC4)cccc3n2CC(F)(F)F)c(OC)c1 (centres unmarked) [Compound 609A]	+ (+ = 0 μM ≤ SC150 < 0.05 μM)
CS(=O)(=O)c1ccc(NCC#Cc2cc3c(N[C@H]4CC[C@H](N5CCC6(CC5)COC6)CC4)cccc3n2CC(F)(F)F)c(OCF)c1 [Compound 391A, 2-(3-{[2-(fluoro-methoxy)-4-methane-sulfonylphenyl]amino}prop-1-yn-1-yl)-N-[(1R,4R)-4-(2-oxa-7-azaspiro[3.5]nonan-7-yl}cyclohexyl]-1-(2,2,2-trifluoroethyl)-1H-indol-4-amine]	+ (+ = 0 μM ≤ SC150 < 0.05 μM)
COc1cc(S(N)(=O)=O)ccc1NCC#Cc1cc2c(NC3CCN(C(=O)CC#N)CC3)cccc2n1CC(F)(F)F [Compound 747A]	+ (+ = 0 μM ≤ SC150 < 0.05 μM)
COc1cc(C(=O)NC(C)C)ccc1NCC#Cc1cc2c(N[C@@H]3CCN(C)C[C@@H]3F)cccc2n1CC(F)(F)F [Compound 808A, 4-{[3-(4-{[(3S,4R)-3-fluoro-1-methylpiperidin-4-yl]amino}-1-(2,2,2-trifluoroethyl)-1H-indol-2-yl)prop-2-yn-1-yl]amino}-3-methoxy-N-(propan-2-yl)benzamide]	+ (+ = 0 μM ≤ SC150 < 0.05 μM)
COc1cc(S(C)(=O)=O)ccc1NCC#Cc1cc2c(N[C@@H]3CCN(C)C[C@H]3F)cccc2n1CC(F)(F)F (racemic) [Compound 769A, (rac)-N-((3R,4R)-3-fluoro-1-methylpiperidin-4-yl)-2-(3-((2-methoxy-4-(methylsulfonyl)phenyl)amino)prop-1-yn-1-yl)-1-(2,2,2-trifluoroethyl)-1H-indol-4-amine]	+ (+ = 0 μM ≤ SC150 < 0.05 μM)
CNC(=O)c1ccc(NCC#Cc2cc3c(N[C@H]4CC[C@H](N5CCC(C(F)(F)F)CC5)CC4)cccc3n2CC(F)(F)F)c(OC)c1 [Compound 438A, 3-methoxy-N-methyl-4-{[3-(4-{[(1R,4R)-4-[4-(trifluoro-methyl)piperidin-1-yl]cyclohexyl]amino}-1-(2,2,2-trifluoroethyl)-1H-indol-2-yl)prop-2-yn-1-yl]amino}benzamide]	+ (+ = 0 μM ≤ SC150 < 0.05 μM)
COc1cc(S(C)(=O)=O)ccc1NCC#Cc1cc2c(NC3CCN(CCOC(C)=O)CC3)cccc2n1CC(F)(F)F [Compound 565A, 2-{4-[(2-{3-[(4-methanesulfonyl-2-methoxyphenyl)amino]prop-1-yn-1-yl}-1-(2,2,2-trifluoroethyl)-1H-indol-4-yl)amino]piperidin-1-yl}EtOAc]	+ (+ = 0 μM ≤ SC150 < 0.05 μM)
COc1cc(S(N)(=O)=O)ccc1NCC#Cc1cc2c(N[C@@H]3CCNC[C@@H]3F)cccc2n1CC(F)(F)F [Compound 845A]	+ (+ = 0 μM ≤ SC150 < 0.05 μM)
